Common to all, as to assay type: cell-based
The subject of series [1] is Candida albicans wild type strain SN250. As to the kind of experiment: Screen for inhibition of Candida albicans lawn formation (halo) on solid YPD plates. The settings on record: for inhibition of C. albicans growth (halo formation) on YPD plates: 5 μl of 10 mM drug on fungal lawn, 25° C. and 37° C. On the procedure:
(§1) C. albicans was plated on solid YPD and serum plates, and 5 μl of each 10 mM drug was placed on top of the fungal lawn. The effect of exposure to each of the compounds from the library was assayed for its ability to inhibit C. albicans growth, as well as ability to form a halo within the fungal lawn. […] (FIG. 1A).
(§2) High-throughput Screening Assay: The sensitivity of C. albicans against compounds was assessed by a high-throughput chemical screen. 200 μl of C. albicans overnight culture were spread onto petri dishes containing either YPD or fetal bovine serum. 5 μl of each drug was placed directly on the agar surface using a multichannel pipette and slight contact of the tip to the agar made to leave an impression to facilitate later analysis. Compounds that were replicated were done on petri dishes, following the same protocol in at least five independent experiments. For the replication studies, only a single drug was placed per plate. The plates were incubated at either 25° C. or 37° C.

For series [2] the test system is unchanged. As to the kind of experiment: Screen for inhibition of Candida albicans lawn formation (halo) on solid serum (FBS agar) plates. The settings on record: 5 μl of 10 mM drug on fungal lawn, 25° C. and 37° C. The method, then: as §1
Media and Growth Conditions: C. albicans strains were cultured with 5 ml of YPD (1% yeast extract, 2% peptone, 2% dextrose, pH 6) medium at 30° C. overnight. Bacterial cells were cultured in LB (Luria-Bertani) medium consisting of 5 g Bacto-Tryptone, 2.5 g Bacto-Yeast Extract, 5 g NaCl and 7.5 g of 2% agar if preparing solid plates. The centrifuge tubes were incubated at 37° C. and left shaking overnight at 150 rpm. Fetal bovine serum was incorporated into agar. Fetal bovine serum was preheated in a water bath set at 65° C. […] The agar solution for the serum mixture consisted of 16 g agar, which was then brought up to 300 ml with nanopure water. The agar solution was then autoclaved at 120° C. for 45 minutes. The agar and serum mixtures were then amalgamated while in their isothermal states.
as §2

Series [3] relates to Candida albicans knock-out mutants. Briefly: Genotypic mutant screening against Octodrine (three knockout libraries, 908 mutant strains). The settings on record: 5 μl of 10 mM drug on YPD plates, 30° C. overnight. The method, then: In order to identify C. albicans proteins and signaling pathways that mediate the lethality of Octodrine, three C. albicans knockout libraries were screened for any alterations in sensitivity to 10 mM Octodrine—collectively consisting of 908 mutant strains each strain lacking one of the virulence genes. These libraries consisted of 647 mutant strains lacking one of the essential virulence genes (Noble, S M et al., 2010, Nat Genet 42:590-598, the entire content of which is herein incorporated by reference); 96 cell wall protein mutants (Norice, C T et al., 2007, Eukaryot Cell 6:2046-2055, the entire content of which is herein incorporated by reference); and 165 transcription factors mutants (Nobile, C J et al., 2005, Curr Biol 15:1150-1155, the entire content of which is herein incorporated by reference).
Genotypic Mutant Screening Against Octodrine: Each C. albicans knockout strain was cultured in individual wells of a 96 well plate in 100 μl of YPD media overnight at 30° C. 5 μl of each Candida knock-out overnight culture was spotted onto a YPD solid plate using a multichannel pipette. The cells were then left to absorb into the YPD plates for 1 hour at 25° C. Using a multichannel pipette, 5 μl of Octodrine 10 mM was spotted directly on top of the C. albicans cells. The plates were then placed in an incubator set at 30° C. and left overnight. […]

The test system of series [4] is Escherichia coli strain C600. As to the kind of experiment: Halo formation in bacterial lawn, gram-negative bacteria. The settings on record: 5 μl of neat form (3 mg of undiluted). An excerpt: (§3) In order to test if Octodrine kills microorganisms by targeting their non-protein cellular components, Escherichia coli and Bacillus cereus, gram-negative and gram-positive bacteria respectively, were exposed to Octodrine.
(§4) Candida albicans and Bacterial Strains: The Candida albicans wild type strain SN250 was used for the high-throughput screening experiments. The bacterial strain consisted of Bacillus cereus strain 10987 and Escherichia coli strain C600. The genotypic screen for mutant sensitivity to Octodrine was tested with three C. albicans libraries that were previously created as disclosed in Noble, 2010, supra; Rauceo, J M et al., 2008, Mol Biol Cell 19:2741-2751; and Homann, O R et al., 2009, PLoS Genet 5:e1000783, the entire contents of all of which are herein incorporated by reference.
(§5) Media and Growth Conditions: C. albicans strains were cultured with 5 ml of YPD (1% yeast extract, 2% peptone, 2% dextrose, pH 6) medium at 30° C. overnight. Bacterial cells were cultured in LB (Luria-Bertani) medium consisting of 5 g Bacto-Tryptone, 2.5 g Bacto-Yeast Extract, 5 g NaCl and 7.5 g of 2% agar if preparing solid plates. The centrifuge tubes were incubated at 37° C. and left shaking overnight at 150 rpm. Fetal bovine serum was incorporated into agar. Fetal bovine serum was preheated in a water bath set at 65° C. […]

Series [5] has as its system Bacillus cereus strain 10987. As to the kind of experiment: Halo formation in bacterial lawn, gram-positive bacteria. The settings on record: 5 μl of neat form (3 mg of undiluted).
Text: as §3, §4, §5

The subject of series [6] is Candida albicans wild type strain SN250. As to the kind of experiment: Screen for inhibition of Candida albicans lawn formation (halo) on solid serum (FBS agar) plates. The settings on record: 5 μl of undiluted (neat) drug, approximately 3 mg, middle of serum-grown lawn.
For series [7], the system named is RAW264.7 mouse macrophage cells. Briefly: Mammalian cell survival assay (MTT). The settings on record: RAW264.7, 1 μl of 10 mM drug in 100 μl media with two-fold dilutions, 24 hours. On the procedure:
Mammalian cell culture, drug treatment, and survival assay: RAW264.7 mouse macrophage cells were maintained in DMEM (Dulbecco's Modified Eagle Medium, Sigma-Aldrich) supplemented with 10% FBS (fetal bovine serum, Bioexpress) and 100 μg/mL penicillin and 100 μg/mL streptomycin. RAW264.7 cells (10,000 per well) were seeded in 96-well plates (100 μL/well) 24 hours before the assay. During the assay, 1 μl of 10 mM drug was added to 100 μl of cell-containing media. Two-fold serial dilutions of the media were performed. Cells were treated with drugs for 24 hours, and determination of cell viability by 3-(4,5-dimethylthiazol-2-yl)-2,5-diphenyltetrazolium bromide (MTT) assay was performed as described in Lu et al., 2004, Proc Natl Acad Sci USA 101:17246-17251, the entire content of which is herein incorporated by reference.
Each data point shown in the figure for MTT assays represents the average of results from at least two wells in each of at least two separate experiments. Cell viability is shown as the percentage of survivors obtained relative to untreated cells (100%).

“Also recorded” adds a separate entry of the source.

On to `Clc1ccccc1C(c1ccccc1)(c1ccccc1)n1ccnc1` [Clotrimazole], for which the “inhibition of C. albicans growth (halo formation) on YPD plates” value (“inhibition … on YPD plates” below) in series [1] is “strong inhibition”. The “inhibition of C. albicans growth (halo formation) on serum plates” value (from here on “inhibition … on serum plates”) in series [2] was “weak inhibition”.
For the molecule `O=[N+]([O-])c1ccc(O)c2ncccc12` [Nitroxoline], in series [2], the “inhibition … on serum plates” value is listed as “weaker inhibition”.
As for `CC(C)CCCC(C)N` (stereo not drawn) [Octodrine, 6-methylheptan-2-amine], the “sensitivity of C. albicans knockout mutants relative to wild type” value in series [3] is reported as “as sensitive as their wild type strains; also recorded: no C. albicans mutants (FIG. 3) showed a decrease in sensitivity”. The “inhibition … on YPD plates” value in series [1] is “moderate-to-weak anti-Candida activity and mild”. In addition, the “halo formation in E. coli lawn” value in series [4] was “formed prominent halos; also recorded: capable of killing”. Besides, the “halo formation in B. cereus lawn” value in series [5] is given as “formed prominent halos; also recorded: capable of killing”. For the same molecule, in series [6], the “elimination of serum-grown Candida lawn by undiluted drug” value is “sufficient to eliminate most of the whole fungal lawn”. The “inhibition … on serum plates” value in series [2] is on record as “strong fungal growth inhibition; also recorded: prominent ability to kill; also recorded: most prominent drug that killed C. albicans in serum; also recorded: best Candida growth inhibition”. For the same molecule, the “survival of mouse macrophages (cell viability relative to untreated cells)” value in series [7] is on record as “the same as to the DMSO alone; also recorded: did not affect the sensitivity”.
Regarding `O=[N+]([O-])c1ccc(/C=N/O)o1` [Nifuroxime], the “inhibition … on serum plates” value in series [2] is given as “weaker inhibition”.
With `CC(C)n1c(/C=C/C(O)CC(O)CC(=O)O)c(-c2ccc(F)cc2)c2ccccc21` (stereo not drawn) [Fluvastatin], in series [2], the “inhibition … on serum plates” value is reported as “failed to inhibit”.
On to Antimycin A, for which the “inhibition … on YPD plates” value in series [1] was “strong inhibition”. In addition, in series [2], the “inhibition … on serum plates” value is on record as “weak inhibition”.
With `O=C1C2CC=CCC2C(=O)N1SC(Cl)(Cl)Cl` (stereo not drawn) [Captan], the “inhibition … on YPD plates” value in series [1] is “strong inhibition”.
As for `COc1c(C)c2c(c(O)c1C/C=C(\C)CCC(=O)O)C(=O)OC2` [Mycophenolic acid], in series [1], the “inhibition … on YPD plates” value is reported as “very strong inhibition”. In addition, the “inhibition … on serum plates” value in series [2] is “failed to inhibit”.
`OC(Cn1cncn1)(Cn1cncn1)c1ccc(F)cc1F` [Fluconazole]: the “inhibition … on YPD plates” value in series [1] was “strong inhibition”; in series [1] (listed as fluconazole), “effective inhibitor; also recorded: prominent halos”. Moreover, the “effectiveness at forming halos at 37° C. compared to 25° C.” value in series [1] (5 μl of 10 mM drug, 37° C. versus 25° C.) is recorded as “diminished effectiveness”. Moreover, in series [2], the “inhibition … on serum plates” value is given as “weak inhibition”.
With `[O-][n+]1ccccc1[S-].[O-][n+]1ccccc1[S-].[Zn+2]` [Pyrithione Zinc], the “inhibition … on YPD plates” value in series [1] was “strong inhibition”. The “inhibition … on serum plates” value in series [2] was “weak inhibition”.
As to `Cc1ccc2c(Cl)cc(Cl)c(O)c2n1` [Chlorquinaldol], the “inhibition … on serum plates” value in series [2] is “strongest inhibition”.
With `Clc1ccc(COC(Cn2ccnc2)c2ccc(Cl)cc2Cl)c(Cl)c1` (stereo not drawn) [Miconazole], the “inhibition … on YPD plates” value in series [1] is listed as “strong inhibition”. Besides, the “inhibition … on serum plates” value in series [2] is given as “weak inhibition”.
For `CCCCCCCC(=O)O` [Octanoic acid], the “inhibition … on serum plates” value in series [2] is on record as “weaker inhibition”.

Source of the values: patent publication US9439876B2, “Method of treating microbial infections” (priority 2014, dated 2016).
